Laboratory results from publication PMC11671597, “The anticancer effect of metformin targets VDAC1 via ER-mitochondria interactions-mediated autophagy in HCC” (Experimental & Molecular Medicine, 2024).

Biological target: voltage-dependent anion channel 1 (VDAC1) (Homo sapiens, UniProt P21796)
Assay: microscale thermophoresis (MST); supported by dose-dependent DARTS in HepG2 mitochondrial lysate (EC50 […]) and loss of protection in D9A/E203A mutants
Assay type: binding

Sequence of voltage-dependent anion channel 1 (VDAC1) (P21796 2-283): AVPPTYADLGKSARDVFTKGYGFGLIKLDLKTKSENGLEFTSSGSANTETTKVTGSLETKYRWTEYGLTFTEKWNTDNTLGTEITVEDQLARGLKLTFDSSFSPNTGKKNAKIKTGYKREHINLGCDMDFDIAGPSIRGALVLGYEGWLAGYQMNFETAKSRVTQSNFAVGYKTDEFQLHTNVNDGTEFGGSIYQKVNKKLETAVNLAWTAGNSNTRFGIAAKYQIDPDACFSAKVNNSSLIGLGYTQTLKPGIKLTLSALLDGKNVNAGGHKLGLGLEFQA

CN(C)C(=N)N=C(N)N [Metformin]
Kd: 204 µM
